Measurements: patent US20220016099A1, “BENZIMIDAZOLE OR BENZOXAZOLE DERIVATIVES FOR PREVENTING AND TREATING CENTRAL NERVOUS SYSTEM DISEASE, DIABETES, AND COMPLICATIONS THEREOF” (TRINUERO, priority 2018, published 2022)

The compounds below were run on Nrf2 (assay: Nrf2 activity by A549-ARE luciferase assay). Conditions: A549-ARE cell line, 10 μM of each compound in DMSO; Nrf2 activity (%) of compound relative to DMSO using luciferase assay; read-out: Nrf2 activity.
Format: cell-based
Description: Example 1: Method for Measuring Nrf2 Activity of Benzimidazole or Benzoxazole Derivatives Using A549-ARE Luciferase Assay
An assay for Nrf2 activity was performed by modification of the method reported in Ilse M. Beck et al., (2013), European Journal of Pharmacology 715. 1-9.
Specifically, A549-ARE cell line was dispensed into a 96-well plate, and then subjected to treatment with a solution obtained by dissolving 10 μM of each compound in Table 2 in dimethyl sulfoxide (DMSO). On the other hand, Compounds 1 and 13 as shown in Table 2 were obtained from Sigma-Aldrich (US); Compounds 2, 5, 8, 9 12, 15, 18 to 20, 23, 25, 30, and 32 were obtained from Tokyo Chemical Industry Co., Ltd. (JP); Compound 3 was obtained from Labseeker (CN); Compound 4 was obtained from BOC Science (US); Compounds 6 and 7 were obtained from Cambridge (US); Compounds 10, 11, 16, 17, 21, and 22 were obtained from Toronto Research Chemicals (CA); Compound 14 was obtained from Selleckchem (US); Compounds 24, 26, 27, and 31 were obtained from BLD Pharm (CN); Compounds 28 and 33 were obtained from Mcule (US); Compound 29 was obtained from Chemshuttle (US); and Compound 34 was obtained from Alinda (RU).
Thereafter, the 96-well plate was treated with 30 μl of luciferase lysis buffer (90.8 mM K2HPO4, 9.2 mM KH2PO4, 0.1% Triton X-100), and then incubated for 30 minutes or longer so that cell lysis proceeded. The incubated cell lysate was transferred to another 96-well plate (white plate), and then each well was treated with 100 μl of luciferase buffer mixture (20 mM Tricine, 1.07 mM [(MgCO3)4Mg(OH)2.5H2O], 2.67 mM [MgSO4.7H2O], 0.1 mM EDTA, 33.3 mM DTT, 270 μM coenzyme A [CoA], 500 μM D-luciferin, 530 μM ATP). Immediately after the treatment, […] was performed to check Nrf2 activity.

| Structure (SMILES) | activity at 10 µM [%] |
| --- | --- |
| COc1ccc2[nH]c([S+]([O-])Cc3ncc(C)c(OC)c3C)nc2c1 (stereo not drawn) [Compound 1, omeprazole, reference compound] | 0 to 30 |
| COc1ccc2[nH]c(SCc3ncc(C)c(OC)c3C)nc2c1 [Compound 2, omeprazole sulfide] | 0 to 30 |
| COc1ccc2[nH]c(S(=O)(=O)Cc3ncc(C)c(OC)c3C)nc2c1 [Compound 3, omeprazole sulfone] | 0 to 30 |
| COc1ccc2[nH]c([S+]([O-])Cc3c(C)c(OC)c(C)c[n+]3[O-])nc2c1 (stereo not drawn) [Compound 4, omeprazole N-oxide] | 0 to 30 |
| COc1ccc2[nH]c(S)nc2c1 [Compound 5, 5-methoxy-2-benzimidazolethiol] | 30 to 70 |
| COc1ccc2c(c1)nc(S)n2C [Compound 6, 5-methoxy-1-methyl-1H-benzimidazole-2-thiol] | 30 to 70 |
| COc1ccc2[nH]c(SC)nc2c1 [Compound 7, 5-methoxy-2-(methylthio)-1H-benzimidazole] | 0 to 30 |
| Cc1c(OCC(F)(F)F)ccnc1C[S+]([O-])c1nc2ccccc2[nH]1 (stereo not drawn) [Compound 8, lansoprazole, reference compound] | > 100 |
| Cc1c(OCC(F)(F)F)ccnc1CSc1nc2ccccc2[nH]1 [Compound 9, lansoprazole sulfide] | 70 to 100 |
| Cc1c(OCC(F)(F)F)ccnc1CS(=O)(=O)c1nc2ccccc2[nH]1 [Compound 10, lansoprazole sulfone] | 0 to 30 |
| Cc1c(OCC(F)(F)F)cc[n+]([O-])c1C[S+]([O-])c1nc2ccccc2[nH]1 (stereo not drawn) [Compound 11, lansoprazole N-oxide] | 70 to 100 |
| Cn1c(S)nc2ccccc21 [Compound 13, 1-methyl-1H-benzimidazole-2-thiol] | 0 to 30 |
| COc1ccnc(C[S+]([O-])c2nc3cc(OC(F)F)ccc3[nH]2)c1OC (stereo not drawn) [Compound 14, pantoprazole, reference compound] | 70 to 100 |
| COc1ccnc(CSc2nc3cc(OC(F)F)ccc3[nH]2)c1OC [Compound 15, pantoprazole sulfide] | 0 to 30 |
| COc1ccnc(CS(=O)(=O)c2nc3cc(OC(F)F)ccc3[nH]2)c1OC [Compound 16, pantoprazole sulfone] | 0 to 30 |
| COc1cc[n+]([O-])c(C[S+]([O-])c2nc3cc(OC(F)F)ccc3[nH]2)c1OC (stereo not drawn) [Compound 17, pantoprazole N-oxide] | 70 to 100 |

| Structure (SMILES) | activity at 10 µM [%] |
| --- | --- |
| FC(F)Oc1ccc2nc(S)[nH]c2c1 [Compound 18, 5-difluoromethoxy-2-mercaptobenzimidazole] | 0 to 30 |
| COCCCOc1ccnc(C[S+]([O-])c2nc3ccccc3[nH]2)c1C (stereo not drawn) [Compound 19, rabeprazole, reference compound] | > 100 |
| COCCCOc1ccnc(CSc2nc3ccccc3[nH]2)c1C [Compound 20, rabeprazole sulfide] | > 100 |
| COCCCOc1ccnc(CS(=O)(=O)c2nc3ccccc3[nH]2)c1C [Compound 21, rabeprazole sulfone] | 0 to 30 |
| COCCCOc1cc[n+]([O-])c(C[S+]([O-])c2nc3ccccc3[nH]2)c1C (stereo not drawn) [Compound 22, rabeprazole N-oxide] | 70 to 100 |
| Cc1cccc2[nH]c(=S)[nH]c12 [Compound 24, 4-methyl-1H-benzimidazole-2-thiol] | 0 to 30 |
| O=S(=O)(O)c1ccc2[nH]c(=S)[nH]c2c1 [Compound 25, 2-sulfanyl-1H-benzimidazole-5-sulfonic acid] | 0 to 30 |
| O=c1[nH]c2ccc(Cl)cc2[nH]1 [Compound 26, 5-chloro-1,3-dihydrobenzimidazol-2-one] | 0 to 30 |
| O=C1Cc2cc(O)ccc2N1 [Compound 27, 5-hydroxyindolin-2-one] | 0 to 30 |
| O=c1[nH]c2c(Cl)c(Cl)c(Cl)cc2o1 [Compound 28, 4,5,6-trichloro-3H-a,3-benzoxazol-2-one] | 0 to 30 |
| COc1ccc2[nH]c(=O)oc2c1 [Compound 29, 6-methoxybenzo[d]oxazol-2(3H)-one] | 30 to 70 |
| O=[N+]([O-])c1ccc2[nH]c(=S)[nH]c2c1 [Compound 30, 2-mercapto-5-nitrobenzimidazole] | 0 to 30 |
| O=c1[nH]c2cc(Cl)c(O)cc2o1 [Compound 31, 6-hydroxychlorzoxazone] | 0 to 30 |
| S=c1[nH]c2ccc(Cl)cc2[nH]1 [Compound 32, 5-chloro-2-mercaptobenzimidazole] | 70 to 100 |
| S=c1[nH]c2cc3ccccc3cc2[nH]1 [Compound 33, 1,3-dihydrobenzo[f]benzimidazole-2-thione] | 0 to 30 |
| COc1cc2nc(S)[nH]c2cc1OC [Compound 34, 5,6-dimethoxy-1H-benzo[d]imidazol-2-thiol] | 0 to 30 |

Same assay, conditions: read-out: Nrf2 activity

| Structure (SMILES) | activity at 10 µM [%] |
| --- | --- |
| Sc1nc2ccccc2[nH]1 [Compound 12, 2-mercaptobenzimidazole] | 0 to 30 |
